This note sets out measurements from patent publication US20180282279A1, “Pantothenamide Analogues” (Radboud Universitair Medisch Centrum, priority 2014, published 2018).

Values after ≈ are worked out from the molar mass of the structure shown. Read-outs that look alike come from different tables or passages of the source.

What all share (format): cell-based
Assay [1] relates to Plasmodium falciparum NF54 parasites. Nature of the assay: P. falciparum asexual blood stage replication assay (SYBR Green). Particulars: NF54, 10% human serum, 72 incubation. The protocol:
Compounds were tested on their ability to inhibit replication of the human malaria parasite Plasmodium falciparum. To this end, Plasmodium falciparum NF54 parasites were cultured in RPMI1640 medium supplemented with 367 μM hypoxanthine, 25 mM HEPES, 25 mM sodiumbicarbonate and 10% human type A serum in an automated large-scale culture system as described before (Transactions of the Royal Society of Tropical Medicine and Hygiene, 1982. 76: p. 812-818). Compounds were diluted in DMSO and subsequently in culture medium to reach a DMSO concentration of 0.2%. 50 μl of diluted compound was transferred to a black 96 well plate. A culture of P. falciparum strain NF54 malaria parasites was diluted to a parasitaemia of 0.5% and a hematocrit of 3%. 50 μl of this diluted culture was added to each well in the 96 well plate._The outermost wells of the plate were filled with sterile water to prevent evaporation. The established antimalarial dihydroartemisinin (DHA) in DMSO acted as a positive control (MIN signal), and 0.1% DMSO acted as a negative control (MAX signal). The plates were incubated for 72 at 37° C., 3% 02, 5% CO2, 93% N2. Changes in parasite replication relative to the controls were monitored using the DNA-marker SYBR Green as described previously (Antimicrob Agents Chemother 48:1803-6). Data were analyzed by logistic regression using the formula: Y=Bottom+(Top-Bottom)/(1+10̂((Log IC50−X)*HillSlope)) and a least squares method to find the best fit.
Using similar methods, IC50 values were determined for a variety of inverted pantothenamides, as listed in table 1 (see section: ‘Detailed description of the invention’)

Assay [2] has as its system Staphylococcus epidermidis. Nature of the assay: Bacterial growth assay and MIC determination, S. epidermidis. As to conditions: Staphylococcus epidermidis; Table 1; most sensitive species S. epidermidis (SE); read-out: MIC (μg/ml) for most sensitive bacterial species. As to the method:
(§1) Strains of Escherichia coli, Staphylococcus aureus and Staphylococcus epidermidis, were grown overnight in 1% Bacto tryptone medium (BD, Sparks, Md.). Streptococcus pyogenes was grown overnight in Bacto Todd Hewitt Broth medium (BD, Sparks, Md.). Cultures were then diluted 1:1,000 in fresh assay medium supplemented with or without 20% fetal bovine serum (FBS; HyClone, Celbio, Logan, Utah) and added to 96-well sterile enzyme-linked immunosorbent assay (ELISA) plates (100 μl per well). The compounds to be tested were diluted in the medium without serum and added to the bacteria (100 μl per well). Plates were incubated at 37° C., and bacterial growth was monitored over time by reading the optical density at 490 nm using a microplate reader (model 450; Bio-Rad Laboratories Inc., Hercules, Calif.). Streptococcus pneumoniae strains were grown to mid-log phase (OD620 of 0.3) and stored in 15% glycerol at […] till further use. Minimal inhibitory concentration (MIC) of antibiotics was determined according to standard procedures. Bacteria were diluted 10-fold in Mueller-Hinton medium (BD, Sparks, Md.) and added to 96-well sterile ELISA plates (150 μl per well). The compounds to be tested were diluted in the medium without serum and added to the bacteria (150 μl per well). Plates were incubated overnight at 37° C. in 5% CO2. The MIC was defined as the lowest concentration of compound at which no growth was visible with the naked eye.

For the next assay, the system named is Streptococcus pyogenes. Nature of the assay: Bacterial growth assay and MIC determination, S. pyogenes. As to conditions: Streptococcus pyogenes; Table 1; most sensitive species S. pyogenes (SP); read-out: MIC (μg/ml) for most sensitive bacterial species. The protocol:
as §1

The subject of assay [3] is S. aureus (SA), S. epidermidis (SE), S. pyogenes (SP), S. pneumoniae (SPn). Nature of the assay: MIC for most sensitive bacterial species (panel). As to conditions: Table 1, no species named, read-out: MIC (μg/ml) for most sensitive bacterial species. The protocol:
as §1

The next assay has as its system Staphylococcus aureus. Nature of the assay: Bacterial growth assay and MIC determination, S. aureus. Particulars: Staphylococcus aureus, Table 1; most sensitive species S. aureus (SA); read-out: MIC (μg/ml) for most sensitive bacterial species. As to the method: as §1

As for `CC(C)(CO)[C@@H](O)C(=O)NCCNC(=O)/C=C/c1ccccc1` [CXP18.6-048], the IC50 in assay [1] is 2.2 µM. The MIC in assay [2] came out at 16 µg/mL (≈ 49.9 µM).
Turning to `CCCC(=O)NCCNC(=O)[C@H](O)C(C)(C)CO` [CXP14.18-020], in assay [1], the IC50 came to 2 µM. For the same compound, the MIC in the assay on Streptococcus pyogenes came out at 32 µg/mL (≈ 123 µM).
The like results for `CCCCC(=O)NCCNC(=O)[C@H](O)C(C)(C)CO` [CXP14.18-028] were, in that order, 0.85 µM and 2 µg/mL (≈ 7.29 µM).
The compound `CC(C)(CO)[C@@H](O)C(=O)NCCNC(=O)CCc1ccc(F)cc1F` [CXP18.6-069] gave an IC50 in assay [1] of 0.11 µM. Also, the MIC in assay [2] came to 4 µg/mL (≈ 11.2 µM).
Turning to `C=CCCCCC(=O)NCCNC(=O)[C@H](O)C(C)(C)CO` [CXP14.18-010], the midpoint of inhibition in assay [1], the IC50, lay at 0.71 µM. Moreover, the MIC with Streptococcus pyogenes is 16 µg/mL (≈ 53.3 µM).
In turn, `COc1ccc(CCC(=O)NCCNC(=O)[C@H](O)C(C)(C)CO)cc1` [CXP18.6-022] registered an IC50 in assay [1] of 1 µM. For the same compound, in assay [3] (tested for SA, SE, SP and SPn), the MIC is above 32 µg/mL.
`C#CCCCC(=O)NCCNC(=O)[C@H](O)C(C)(C)CO` [CXP14.18-016] showed an IC50 in assay [1] of 0.81 µM. Also, the MIC in the assay on Streptococcus pyogenes amounted to 32 µg/mL (≈ 113 µM).
As to `CC(C)(CO)[C@@H](O)C(=O)NCCCNC(=O)CCc1ccccc1` [CXP18.6-010], in assay [1], it took 7.5 µM to reach half-maximal inhibition (IC50). In assay [3] (tested for SA, SE, SP and SPn), the MIC was above 32 µg/mL.
In assay [1], `CC(C)(CO)[C@@H](O)C(=O)NCCNC(=O)CCc1ccccn1` [CXP18.6-055] displayed an IC50 of 1.6 µM. In addition, the MIC in assay [2] came to 32 µg/mL (≈ 99 µM).
As to `CC(C)(CO)[C@@H](O)C(=O)NCCNC(=O)CCc1cccc(F)c1` [CXP18.6-018], the IC50 in assay [1] was determined as 0.1 µM. Besides, the MIC with Streptococcus pyogenes was 16 µg/mL (≈ 47 µM).
The like results for `C=CCCC(=O)NCCNC(=O)[C@H](O)C(C)(C)CO` [CXP14.18-007] were, in that order, 5.15 µM and 16 µg/mL (≈ 58.7 µM).
In turn, `CC(C)(CO)[C@@H](O)C(=O)NCCNC(=O)CCc1ccncc1` [CXP18.6-056] registered an IC50 in assay [1] of 0.47 µM. In assay [3] (Streptococcus pneumoniae, marked *: not tested for S. pneumoniae), the MIC was above 32 µg/mL.
Take `CCSCCC(=O)NCCNC(=O)[C@H](O)C(C)(C)CO` [CXP14.18-038]: the IC50 in assay [1] was 0.37 µM. Besides, in the assay on Streptococcus pyogenes, the MIC was 8 µg/mL (≈ 26.1 µM).
On to `CSCCCC(=O)NCCNC(=O)[C@H](O)C(C)(C)CO` [CXP14.18-034], for which, in assay [1], the IC50 came out at 0.62 µM. In addition, the MIC with Streptococcus pyogenes is 8 µg/mL (≈ 26.1 µM).
In assay [1], `C=CCCCC(=O)NCCNC(=O)[C@H](O)C(C)(C)CO` [CXP14.18-008] showed an IC50 of 0.74 µM. Besides, in the assay on Streptococcus pyogenes, the MIC worked out at 16 µg/mL (≈ 55.9 µM).
`CCCCCCCCCCC(=O)NCCNC(=O)[C@H](O)C(C)(C)CO` [CXP14.18-012]: the IC50 in assay [1] was above 10 µM. In addition, the MIC in assay [2] was determined as 8 µg/mL (≈ 22.3 µM).
The corresponding values for `CC(C)(CO)[C@@H](O)C(=O)NCCNC(=O)CCc1ccccc1C(F)(F)F` [CXP18.6-038] are 6.4 µM and 32 µg/mL (≈ 82 µM).
In turn, `CCOCCC(=O)NCCNC(=O)[C@H](O)C(C)(C)CO` [CXP14.18-035] registered an IC50 in assay [1] above 10 µM. Also, the MIC with Streptococcus pyogenes was 16 µg/mL (≈ 55.1 µM).
Turning to `CC(C)(CO)[C@@H](O)C(=O)NCCNC(=O)CCCc1ccccc1` [CXP18.6-008], the concentration for half-maximal inhibition (IC50) in assay [1] turned out to be 0.57 µM. The MIC in assay [2] was 16 µg/mL (≈ 47.6 µM).
`CC(C)CCC(=O)NCCNC(=O)[C@H](O)C(C)(C)CO` [CXP14.18-005] came in with an IC50 in assay [1] of 2.78 µM. In the assay with Streptococcus pyogenes, the MIC stood at 8 µg/mL (≈ 27.7 µM).
The like results for `CCCSCC(=O)NCCNC(=O)[C@H](O)C(C)(C)CO` [CXP14.18-037] were, in that order, 1.34 µM and 4 µg/mL (≈ 13.1 µM).
The corresponding values for `CC(C)(CO)[C@@H](O)C(=O)NCCNC(=O)Cc1ccccc1` [CXP18.6-007] are 3.9 µM and 16 µg/mL (≈ 51.9 µM).
In the case of `CC(C)(CO)[C@@H](O)C(=O)NCCNC(=O)CCc1ccc(F)cc1` [CXP18.6-019], the IC50 in assay [1] amounted to 0.42 µM. For the same compound, in assay [2], the MIC came to 32 µg/mL (≈ 94 µM).
In assay [1], `CC(C)(CO)[C@@H](O)C(=O)NCCNC(=O)CCc1ccco1` [CXP18.6-057] came in with an IC50 of 0.4 µM. The MIC (in assay [2]; with Staphylococcus aureus) was 16 µg/mL (≈ 51.2 µM) each time.
In the case of `C=CC(C)CC(=O)NCCNC(=O)[C@H](O)C(C)(C)CO` (stereo partly drawn) [CXP14.18-014], half-maximal inhibition in assay [1] (IC50) was put at 4.93 µM. In the assay on Streptococcus pyogenes, the MIC came out at 16 µg/mL (≈ 55.9 µM).

In general, IC50 refers to the concentration that gives 50% inhibition. Low values mean greater potency, high ones weaker potency.
